Measured values reported in paper PMC8395040 (International Journal of Molecular Sciences, 2021).

What was measured:
human WT SMO = target: T1, human WT SMO (Homo sapiens, UniProt Q99835); assay: BODIPY-cyclopamine displacement assay, WT SMO; details: HEK293T transfected with WT SMO, BC 5 nM; read-out: IC50 for binding to WT SMO (BC displacement)
T1 construct: Myc-DDK; expressed in transfected cells; host or cells: HEK293T
Experimental: (§1) HEK293T cells were transfected with genes encoding human WT SMO tagged with Myc-DDK or human SMO D473H mutant tagged with Myc. Cells were washed in PBS supplemented with 0.5% FBS, fixed in 4% paraformaldehyde in PBS for 10 min, and incubated for 6 h at 37 °C in the same medium supplemented with BODIPY-cyclopamine (5 nM), with and without 4s at different concentrations ([…]). The cells were permeabilised with 0.2% Triton X-100 (Sigma, St. Louis, MO, USA). Dako Fluorescent Mounting solution (Dako, Carpinteria, CA, USA) was used as mounting medium and the Hoechst reagent for staining of cell nuclei. BODIPY (green) and Hoechst (blue) signals were analysed in three representative fields per coverslip (×20 magnification). Data were expressed as the percentage of BC incorporation observed with BC alone.

human SMO D473H mutant = target: T2, human SMO D473H mutant (Homo sapiens, UniProt Q99835, D473H); assay: BODIPY-cyclopamine displacement assay, SMO D473H; assay type: binding
T2 construct: Myc; expressed in transfected cells; host or cells: HEK293T
Experimental: as §1

[1] = system: Gli1 mRNA in WT MEFs stimulated with SAG; assay: Gli1 mRNA (qRT-PCR) in SAG-stimulated WT MEFs; assay type: cell-based, mouse; details: 10 µM, SAG 200 nM, 24 h
[2] = system: cancer cell lines (HH-dependent and HH-independent); assay: Annexin V-FITC/PI dose-response, cancer cell lines; assay type: cell-based, human; details: 1.5–50 µM, 72 h
Experimental: Apoptosis plays a major role in maintaining the homeostasis of cells. Cellular shrinkage and DNA fragmentation at the molecular level are characteristics acquired during apoptosis. Therefore, we performed flow cytometric analysis to determine if 4s could induce apoptosis in tumour cell lines. To this end, 4s-treated cells were stained with Annexin V-FITC and/or PI and analysed by flow cytometry. Dose–response effects were assessed using 4s at concentrations under 50 µM (1.5, 3.0, 6.25, 19, 25 and 50 µM) for 72 h.
Supplemental Figure S1: 4s triggers apoptosis in various cancer cell lines. A)
Dose-response curves are shown for four neoplastic cancer cell lines and HEK293 cells as a control. Cells were treated with 4s […]
stained with annexin V-FITC and propidium iodide (PI) and analyzed by flow cytometry.
Results are presented as the mean ± SD of three independent experiments. (***) p <
0.0001 vs. control. Data were analyzed with a non-parametric t-test. B) Representative dot plot of HT29 cells untreated (control) or treated for 3 h with 4s (19 µM ). […]

Solubility in water = assay type: physicochemical
[3] = system: Gli1 mRNA in Ptch1−/− mouse embryonic fibroblasts; assay: Gli1 mRNA (qRT-PCR) in Ptch1−/− MEFs; assay type: cell-based; details: increasing concentrations, 24 h
Experimental: HEK293T and Smo^−/−, Ptch^−/− MEFs cells were cultured in DMEM plus 10% FBS, 1% L-glutamine and antibiotics. Transient transfections were performed using DreamFectTM Gold transfection reagent (Oz Biosciences SAS, Marseille, France) following the manufacturer’s instructions and for varying periods of time depending on the experiment (24–72 h). […] Vehicle (DMSO) was used as control.
Total RNA was isolated with Trizol (Invitrogen/Life Technologies, Carlsbad, CA, USA) from Smo^−/− MEFs, Ptch^−/− MEFs or HT29 cells treated for 24 h and/or 48 h with 4s at different concentrations and reverse transcribed with the SensiFAST cDNA Synthesis Kit (Bioline Reagents Limited, London, UK). Quantitative real-time PCR (Q-PCR) analysis of Gli1 and housekeeping (HPRT, TBP, HMBS) mRNA levels was performed on each cDNA sample using the VIIA7 Real Time PCR System employing Assay-on-Demand Reagents (Life Technologies) as previously described. […] Each amplification reaction was performed in triplicate, the average of the three threshold cycles was used to calculate the amount of transcript in the sample (using SDS version 2.3 Software). mRNA quantification was expressed in arbitrary units as the ratio of the sample quantity to the quantity of the calibrator (ΔCt method). […]

T2 sequence (Q99835 28-787 D473H): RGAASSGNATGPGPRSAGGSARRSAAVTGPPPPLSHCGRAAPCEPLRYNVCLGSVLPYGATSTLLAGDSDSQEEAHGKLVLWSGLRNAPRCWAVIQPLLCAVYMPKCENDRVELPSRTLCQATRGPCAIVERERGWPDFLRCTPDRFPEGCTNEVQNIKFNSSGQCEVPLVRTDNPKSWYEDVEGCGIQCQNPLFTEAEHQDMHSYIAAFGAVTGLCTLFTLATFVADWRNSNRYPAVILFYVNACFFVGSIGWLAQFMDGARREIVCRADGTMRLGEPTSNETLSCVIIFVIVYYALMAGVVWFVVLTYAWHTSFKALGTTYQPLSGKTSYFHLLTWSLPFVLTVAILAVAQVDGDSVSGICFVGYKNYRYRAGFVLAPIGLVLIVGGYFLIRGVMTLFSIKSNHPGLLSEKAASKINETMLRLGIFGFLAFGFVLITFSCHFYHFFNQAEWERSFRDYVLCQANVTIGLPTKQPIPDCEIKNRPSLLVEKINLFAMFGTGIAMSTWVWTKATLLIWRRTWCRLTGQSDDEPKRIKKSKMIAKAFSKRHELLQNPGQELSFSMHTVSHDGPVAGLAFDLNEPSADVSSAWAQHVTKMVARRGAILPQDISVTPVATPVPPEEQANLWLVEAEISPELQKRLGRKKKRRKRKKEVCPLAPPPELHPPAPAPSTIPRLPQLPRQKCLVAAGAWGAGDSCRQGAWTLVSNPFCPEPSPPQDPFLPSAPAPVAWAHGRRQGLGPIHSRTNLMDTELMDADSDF
T1 sequence (Q99835 28-787): as the sequence (Q99835 28-787 D473H) above, with H446D counted along it

CCCCCCn1cnc2c(-c3ccc(OC(F)(F)F)cc3)nc(N3CCN(c4ccncc4)CC3)nc21 [Compound 4s, 9-Hexyl-2-(4-(pyridin-4-yl)piperazin-1-yl)-6-(4-(trifluoromethoxy)phenyl)-9H-purine]
IC50 (human WT SMO): 950 nM
concentration above which toxic to SMO-D473H cells (human SMO D473H mutant; HEK293T expressing SMO-D473H): above 5 µM
binding to the SMO-D473H mutant receptor (human SMO D473H mutant; HEK293T expressing SMO-D473H, up to 5 µM): dose-dependent inhibition of binding
decrease of binding affinity with SMO-D473H mutant compared to WT SMO (human SMO D473H mutant; suggested, no IC50 determinable): about 25%
Gli-1 expression in WT MEF cells stimulated with SAG [1]: inhibited Gli-1 expression
induction of apoptosis [2]: induced apoptosis in a dose-dependent manner
solubility in water (Solubility in water): poor
GLI1 mRNA levels in Ptch1−/− MEFs [3]: significantly reduced mRNA levels of GLI1
